The subject of one series is iPSC-BMECs. Description: Biphalin uptake studies in iPSC-BMECs. The class given is in vitro ADME, human. The protocol: (§1) We measured the level of biphalin in cell lysate (uptake studies) and transport buffer (transport studies) while using our developed, highly sensitive LC-MS/MS method. Briefly, biphalin was extracted from the samples by the addition of acetonitrile (1:2) containing 10 ng/mL internal standard, [D-Ala^2] Leucine Enkephalin (Sigma-Aldrich, St. Louis, MO, USA). After 1-min. vortexing, the mixture is centrifuged at 10,000 rpm for 10 min. After that the supernatant is mixed with an equivalent volume of LCMS water and then loaded into the insert vials ready for the analysis. The UHPLC-MS/MS system equipped with AB SCIEX QTRAP® 5500 mass spectrometer (Foster City, CA, USA) attached to a Nexera ultra high performance liquid chromatography (UHPLC) system from Shimadzu Corporation (Columbia, MD, USA) was used. Data acquisition and quantification were performed by Analyst software 1.7.0.
(§2) Chromatographic separation was then performed with a Kinetex C18 column (50 × 2.1mm, 1.8 μm, Phenomenex, Torrance, CA, USA) while using mobile phases, 0.1% formic acid in water and 0.1% formic acid in acetonitrile. The gradients of acetonitrile (10% at time zero, 31% at 2.5 min., 90% at 2.6 min. up to 3.6, followed by 10% at 3.7 min. up to 4.5 min.) were used to elute biphalin at a flow rate of 0.4 mL/min. Column temperature was maintained at 45 °C. The retention time of biphalin was ∼1.8 min. while the retention time for the internal standard (IS) was ∼2.2 min. Multiple reaction monitoring was conducted in […], and the transitions for biphalin and internal standard were 455.2 → 136.2 m/z and 570.3 → 120.3 m/z, respectively. The collision energy for biphalin and IS was 40 and 45 volts, respectively.
Differentiated BMECs (iPSC-BMECs) are seeded in 12-well plates, incubated with either biphalin (10 µg/mL) (control) or pre-incubated with OATP1 substrate, estrone-3-sulfate (E3S) (10 µM) for 10 min., followed by co-incubation of E3S and 10 µg/mL biphalin in the 37 °C incubator for 20 min. The incubation time, 20 min. was selected to get detectable amount of biphalin in the cell extract. Next, the cells are washed two times with ice-cold phosphate buffered saline (PBS, pH 7.4). The cells were solubilized with 100 µL radioimmunoprecipitation assay (RIPA) Buffer (Thermo Fisher, Waltham, MA, USA) with protease and phosphatase inhibitor cocktail (Thermo Fisher, Waltham, MA, USA), and the amount of biphalin uptake was determined by using the above LCMS method. Protein content was calculated with a detergent-compatible bicinchoninic acid (BCA) assay (Pierce Chemical, Rockford, IL, USA). Biphalin uptake was normalized while using protein content and then presented as biphalin (ng) per µg of protein.
In vitro stroke conditions were simulated by exposing the cells to oxygen-glucose deprivation (OGD) conditions. Briefly, iPSC-BMECs were rinsed twice with Dulbecco’s Modified Eagle medium Solution (DMEM). The cells were incubated with DMEM media (without glucose) plus 1% of PDS [33]. Hypoxia (1% oxygen) was induced by placing the cells in a hypoxic polymer glove box (Coy Laboratories, Grayslake, MI, USA), which was infused with 95% N2 and 5% CO2 at 37 °C. Cells were exposed to OGD condition for 1 h, 2 h, and 6 h, followed by reperfusion with OGD media with glucose and sodium pyruvate. For reperfusion studies, the cells were incubated in the CO2 incubator for pre-determined timepoints, 30 min., 1 h, 2 h, and 6 h.

A further series relates to OATP1. Description: Biphalin transcellular transport across iPSC-BMECs monolayer (transwell in vitro BBB model). The class given is in vitro ADME, human. The conditions noted are these: human; normoxic; E3S pre-incubated 30 min, both luminal and abluminal sides, then biphalin 10 µg/mL plus E3S; A-B; corrected for FITC-dextran 4 kD; LC-MS/MS; mean ± SD, n = 4; read-out: net permeability coefficient (PC) of biphalin, apical to basolateral, with E3S (converted). As to the method:
as §1, §2
(§3) Transport studies were performed to determine the role of OATP1 on the blood-to-brain transport of biphalin. Confluent iPSC-BMECs, (one million cells/insert) were seeded to the apical side of a 12-well transwell insert (area 1.12 cm^2, polyester), which is pre-coated with 400 µg/mL collagen and 100 µg/mL fibronectin [35]. 10 µg/mL biphalin and an equivalent concentration of FITC-dextran (4kD) were added to the apical compartment. For studies using an inhibitor and OATP1 substrate, E3S was pre-incubated for 30 min., followed by incubation with biphalin and E3S [11]. E3S was added to both the luminal and abluminal sides to inhibit the transporters on both sides. The results were expressed as a net permeability coefficient (PC) after subtracting the PC of FITC-dextran from the PC of biphalin.
(§4) In vitro stroke conditions were simulated by exposing the cells to oxygen-glucose deprivation (OGD) conditions. […] For reperfusion studies, the cells were incubated in the CO2 incubator for pre-determined timepoints, 30 min., 1 h, 2 h, and 6 h.

For the next series, the system named is iPSC-BMECs monolayer. The description is as above. The class given is in vitro ADME, human. The protocol: as §1, §2, §3, §4
For series [1] the following is noted: cited from earlier work. From the text: Our lab has communicated several studies that reported the neuroprotective potential of biphalin, an ultra-potent, non-selective, opioid agonist, in models of both permanent and transient ischemic stroke.

With `C[C@@H](NC(=O)[C@@H](N)Cc1ccc(O)cc1)C(=O)NCC(=O)N[C@@H](Cc1ccccc1)C(=O)NNC(=O)[C@H](Cc1ccccc1)NC(=O)CNC(=O)[C@@H](C)NC(=O)[C@@H](N)Cc1ccc(O)cc1` [biphalin], the biphalin uptake in the series with iPSC-BMECs (2 h OGD + 6 h reperfusion, LC-MS/MS, mean ± SD, n = 4) was 2.5 ± 0.2 ng/µg; in the series with iPSC-BMECs (6 h OGD + 30 min reperfusion, LC-MS/MS, mean ± SD, n = 4), 2 ± 0.25 ng/µg; in the series with iPSC-BMECs (6 h OGD + 6 h reperfusion), “decreased to the basal normoxic level”; in the series with iPSC-BMECs (after 1 h OGD, biphalin 10 µg/mL, 20 min, LC-MS/MS, mean ± SD, n = 4), 1.31 ± 0.2 ng/µg; in the series on iPSC-BMECs (after 2 h OGD, biphalin 10 µg/mL, 20 min, LC-MS/MS, mean ± SD, n = 4), 1.89 ± 0.015 ng/µg; with iPSC-BMECs (after 6 h OGD, biphalin 10 µg/mL, 20 min, LC-MS/MS, mean ± SD, n = 4) it was 1.64 ± 0.15 ng/µg. Moreover, the biphalin uptake in the series with iPSC-BMECs (normoxic, without E3S, biphalin 10 µg/mL, 20 min, 37 °C, cell lysate (RIPA), LC-MS/MS, normalized to protein (BCA), mean ± SD, n = 4) is given as 0.49 ± 0.05 ng of biphalin per 1 ug of protein. Also, the “increase of biphalin uptake compared to normoxic conditions” value in the series with iPSC-BMECs (after 2 h OGD exposure (1% oxygen, no glucose), n = 4) was 2.8 fold; in the series on iPSC-BMECs (after 6 h OGD exposure (1% oxygen, no glucose), n = 4), 2.4 fold. In addition, the “average reduction of biphalin uptake by E3S pre-incubation” value in the series on iPSC-BMECs (average over selected OGD and OGD-reperfusion timepoints (2 h OGD, 6 h OGD, 2 h OGD + 6 h R, 6 h OGD + 30 min R), n = 3) was 26.59 ± 8.01%. Moreover, in the series with iPSC-BMECs (normal (normoxic) conditions, E3S 10 µM), the “reduction of biphalin uptake by E3S” value is listed as “approximately 23%”. Further, the “biphalin uptake with E3S” value in the series on iPSC-BMECs (normoxic, E3S (OATP1 substrate) 10 µM pre-incubated 10 min, then co-incubated with biphalin 10 µg/mL 20 min, 37 °C, LC-MS/MS, mean ± SD, n = 4) is given as 0.37 ± 0.05 ng/ug protein. Moreover, the Papp A→B at 10 µg/mL with OATP1 was 5.67 ×10⁻⁶ cm/s. In addition, the “average reduction of biphalin transport in the presence of E3S” value with iPSC-BMECs monolayer (A-B, average over OGD and OGD-reperfusion timepoints, E3S pre-treated 30 min, n = 3) was found to be 37.96 ± 12.51%. For the same compound, the “transport of biphalin from basolateral to apical side (B to A)” value with iPSC-BMECs monolayer (B-A, to determine the role of P-gp or other efflux mechanisms, data not shown) is reported as “negligible”. Moreover, the “reduction of biphalin transport by E3S” value in the series on iPSC-BMECs monolayer (normal (normoxic) conditions, A-B, E3S pre-incubated 30 min) is given as about 40%. Also, the “injected dose accumulated in the brain” value in series [1] was 0.05%.
